In paper PMC8448819, “The Arabidopsis MIK2 receptor elicits immunity by sensing a conserved signature from phytocytokines and microbes” (Nature Communications, 2021):
“And” between values parts separate entries of the source, which are not always exact repeats. Equal values may be shown once. “Also recorded” adds a separate entry of the source. Read-outs that look alike come from different tables or passages of the source. No end group written: not given here.

Experiments:
Type in all cases: in vivo, Arabidopsis thaliana
[1] = test system: mik2-1 and mik2-2 mutant seedlings; settings: for Root length (Fig. 3e): individual values, one per line; for root growth inhibition in mik2: mik2-1 and mik2-2, 10-day-old seedlings, 1 µM peptide
[2] = test system: Arabidopsis WT (Col-0) seedlings; settings: in vivo
Arabidopsis WT seedlings = test: ROS assay (luminol), WT seedlings; settings: WT seedlings
Protocol: ROS burst was determined by a luminol-based assay. […] Then, ddH2O was replaced by 200 µL of reaction solution containing 50 µM of luminol, and 10 µg/mL of horseradish peroxidase (Sigma-Aldrich) supplemented with or without 100 nM or 1 μM peptide. Luminescence was measured immediately after adding the solution with a luminometer (Glomax 20/20n, Promega) with a one-second interval for 15 min. The total values of ROS production were indicated as means of the relative light units (RLUs).

[3] = test system: WRKY30, WRKY33 and CYP81F2 expression, WT seedlings; test: RT-qPCR of defense genes, WT
[4] = test system: WRKY30, WRKY33 and CYP81F2 expression, mik2 seedlings; test: RT-qPCR of defense genes, mik2 mutants
[5] = test system: MYB51 promoter, pMYB51::GUS seedling roots; test: Histochemical GUS staining, pMYB51::GUS; settings: pMYB51::GUS seedlings, 1 µM, 3 h
Excerpt: Stained samples were fixed with a 3:1 ethanol:acetic acid solution overnight and cleared by lactic acid and photographed with the Olympus SZX10 stereoscopic microscope equipped with DP27 camera.

[6] = test system: Arabidopsis WT seedling roots; test: Microscopy of root browning and root meristems, WT
p35S::Aequorin seedlings = settings: Ca^2+ and ROS bursts, 100 nM
[7] = test system: MPK3, MPK4 and MPK6 phosphorylation, WT seedlings; test: MAPK assay (α-pERK1/2 immunoblot), WT; settings: Supplementary Fig. 3i
Protocol: Ten-day-old seedlings grown vertically on ½MS plates were transferred to ddH2O overnight for recovery. Then, ddH2O was replaced by 100 nM peptides for the indicated time.

Sequence	Root length (Fig. 3e) ([1]; mik2-1)	Root length (Fig. 3e) ([1]; mik2-2)	root growth inhibition [2]	MYB51 promoter activity in roots [5]	further results
GAPIVFTPPSSSCGGSP [STMP4, STMP4 peptide, which has an amino acid deletion in the conserved SxS motif]	26.035 and 22.177 and 25.221 and 21.231 and 23.232 and 25.379 and 25.816 and 25.603 and 24.49	27.261 and 26.645 and 24.381 and 25.81 and 23.327 and 24.383 and 26.715 and 24.68 and 25.536 and 24.727			
KIAVGGSDSVRAHSK [SCOOP23, synthesized SCOOP peptide corresponding to the SxS motif]	23.435 and 26.217 and 25.329 and 21.432 and 22.769 and 26.981 and 22.432 and 24.659 and 23.767 and 23.209	23.086 and 28.297 and 24.517 and 23.273 and 27.734 and 25.385 and 23.518 and 22.015 and 26.958 and 26.866 and 23.718	inhibited root growth to various degrees		ROS production, total luminescence (Fig. 2h) (Arabidopsis WT seedlings; repeat 1): 2180098; ROS production, total luminescence (Fig. 2h) (Arabidopsis WT seedlings; repeat 2): 1251437; ROS production, total luminescence (Fig. 2h) (Arabidopsis WT seedlings; repeat 3): 1771537
KIGASGSNSGRAPSC [SCOOP20, synthesized SCOOP peptide corresponding to the SxS motif]	24.471 and 25.145 and 23.922 and 25.251 and 22.928 and 25.223 and 20.452 and 22.037 and 23.256 and 20.819	26.727 and 24.181 and 24.271 and 27.062 and 26.494 and 25.973 and 25.806 and 29.152 and 24.029 and 26.34 and 22.997	inhibited root growth to various degrees		ROS production, total luminescence (Fig. 2h) (Arabidopsis WT seedlings; repeat 1): 5262077; ROS production, total luminescence (Fig. 2h) (Arabidopsis WT seedlings; repeat 2): 3306520; ROS production, total luminescence (Fig. 2h) (Arabidopsis WT seedlings; repeat 3): 2873103
MGSGASGPVRSSQSSQAGGR [SCOOP12]					WRKY30, WRKY33 and CYP81F2 expression ([3]; 1 µM, 1 h, RT-qPCR): upregulation; CYP81F2 expression (Fig. 3i) ([3]; repeat 1): 29.17; CYP81F2 expression (Fig. 3i) ([3]; repeat 2): 38.18; CYP81F2 expression (Fig. 3i) ([3]; repeat 3): 74.97; CYP81F2 expression (Fig. 3i) ([3]; repeat 4): 101.98; CYP81F2 expression (Fig. 3i) ([4]; mik2-1, repeat 1): 5.42; CYP81F2 expression (Fig. 3i) ([4]; mik2-1, repeat 2): 5.95; CYP81F2 expression (Fig. 3i) ([4]; mik2-1, repeat 3): 2.79; CYP81F2 expression (Fig. 3i) ([4]; mik2-1, repeat 4): 3.39; CYP81F2 expression (Fig. 3i) ([4]; mik2-2, repeat 1): 6.08; CYP81F2 expression (Fig. 3i) ([4]; mik2-2, repeat 2): 9.84; CYP81F2 expression (Fig. 3i) ([4]; mik2-2, repeat 3): 9.95; CYP81F2 expression (Fig. 3i) ([4]; mik2-2, repeat 4): 12.98; WRKY30, WRKY33 and CYP81F2 expression ([4]; mik2 mutants, 1 µM, 1 h, RT-qPCR): abolished in mik2 mutants
MISEARPSKSKKGGGR [SCOOP6B, synthesized SCOOP peptide corresponding to the SxS motif]	26.764 and 22.587 and 22.234 and 24.018 and 23.886 and 24.716 and 22.804 and 23.685 and 23.478 and 25.619	24.299 and 28.027 and 25.995 and 25.387 and 24.265 and 26.073 and 27.219 and 21.779 and 25.474 and 24.644	inhibited root growth to various degrees		
PPRGPGGSGSGHGGGR [AtSCOOPL, SCOOPL from Acidovorax temperans]			inactivity	inactivity	
PPRGSGGPGGSGHGGGG [AaSCOOPL, SCOOPL from Acidovorax avenae]			inactivity	inactivity	
PPRGSGGSGSGHGGGR [VeSCOOPL, SCOOPL from Verminephrobacter eiseniae]			induced growth inhibition	MYB51 promoter activation in roots	root growth inhibition in mik2 [1]: blocked in mik2-1
PPRGSGGSSSGHGGGR [CuSCOOPL, SCOOPL from a strain of Curvibacter sp]			induced growth inhibition	MYB51 promoter activation in roots	root growth inhibition in mik2 [1]: blocked in mik2-1
RGIVKPPIASFHSASPKDKGP [SCOOP4, synthesized SCOOP peptide corresponding to the SxS motif]	22.155 and 26.016 and 23.373 and 23.51 and 24.985 and 25.73 and 26.362 and 20.719 and 23.733 and 21.154	26.627 and 26.926 and 29.205 and 26.909 and 23.654 and 24.824 and 23.191 and 25.56 and 22.857 and 22.903 and 27.736	inhibited root growth to various degrees		
RPPTPRVAVHSNSTKGKGP [SCOOP15B, synthesized SCOOP peptide corresponding to the SxS motif]	22.469 and 26.152 and 25.889 and 25.356 and 27.954 and 26.487 and 24.47 and 23.738	21.779 and 26.908 and 23.024 and 23.497 and 28.191 and 26.08 and 24.094 and 28.257 and 26.467 and 23.539 and 26.537	inhibited root growth to various degrees		
RSMAPPIFVPPSTSHKGQGP [SCOOP14, synthesized SCOOP peptide corresponding to the SxS motif]	24.089 and 21.232 and 24.336 and 25.505 and 25.175 and 27.845 and 26.169 and 23.827 and 21.884 and 25.844	25.38 and 24.419 and 26.016 and 27.911 and 26.615 and 21.291 and 24.947 and 21.905 and 24.43 and 24.226	inhibited root growth to various degrees; also recorded: potent in inhibiting root growth	induced the promoter activities of MYB51	root browning ([6]; WT seedlings, prolonged treatment): led to brown roots; root meristem distortion ([6]; WT, 5-day-old seedlings, 1 µM, 48 h, PI staining): distorted root meristems; ROS production, total luminescence (Fig. 2h) (Arabidopsis WT seedlings; repeat 1): 719851; ROS production, total luminescence (Fig. 2h) (Arabidopsis WT seedlings; repeat 2): 1351126; ROS production, total luminescence (Fig. 2h) (Arabidopsis WT seedlings; repeat 3): 841586; ROS production, SCOOP13 and 14 relative to other SCOOPs, and Ca^2+ bursts (p35S::Aequorin seedlings): relatively weak activities for Ca^2+ and ROS bursts; MAPK activation in shoots and roots [7]: triggered the MAPK activation in both shoots and roots
SNIDFEGSISGQAGGG [SCOOP8, synthesized SCOOP peptide corresponding to the SxS motif]	25.253 and 25.162 and 23.049 and 22.582 and 26.011 and 22.381 and 28.631 and 26.512 and 24.502 and 27.853	23.975 and 28.387 and 29.648 and 23.838 and 24.549 and 26.123 and 23.426 and 24.732 and 24.595 and 29.804 and 26.398	inhibited root growth to various degrees		
